Results: ChEMBL document CHEMBL5223177, “Pyrazole Ureas as Low Dose, CNS Penetrant Glucosylceramide Synthase Inhibitors for the Treatment of Parkinson's Disease” (ACS Med Chem Lett, 2023)
≈ marks a conversion by molar mass, not a printed value.

Assays:
Homo sapiens [1] = species on record: Homo sapiens; test: Inhibition of CYP2C9 (unknown origin) relative to control
[2] = Solubility of compound at pH 2 by HPLC method; type: physicochemical; conditions: buffer
[3] = Half life in dog; type: ADME, Canis lupus familiaris; conditions: in vivo
[4] = Bioavailability in rat at 5 to 10 mg/kg, po or 0.05 to 2 mg/kg, iv; type: ADME, organism-based; conditions: in vivo, dose 5-10 mg/kg
Homo sapiens [5] = species on record: Homo sapiens; test: Selectivity ratio of IC50 for human 5HT3A to IC50 for GCS (unknown origin)
[6] = biological target: Neuronal acetylcholine receptor subunit alpha-3 (Homo sapiens, UniProt P30926+P32297); test: Inhibition of human alpha3beta4 nAChR
Neuronal acetylcholine receptor subunit alpha-3, sequence (P32297 whole entry, one chain of several): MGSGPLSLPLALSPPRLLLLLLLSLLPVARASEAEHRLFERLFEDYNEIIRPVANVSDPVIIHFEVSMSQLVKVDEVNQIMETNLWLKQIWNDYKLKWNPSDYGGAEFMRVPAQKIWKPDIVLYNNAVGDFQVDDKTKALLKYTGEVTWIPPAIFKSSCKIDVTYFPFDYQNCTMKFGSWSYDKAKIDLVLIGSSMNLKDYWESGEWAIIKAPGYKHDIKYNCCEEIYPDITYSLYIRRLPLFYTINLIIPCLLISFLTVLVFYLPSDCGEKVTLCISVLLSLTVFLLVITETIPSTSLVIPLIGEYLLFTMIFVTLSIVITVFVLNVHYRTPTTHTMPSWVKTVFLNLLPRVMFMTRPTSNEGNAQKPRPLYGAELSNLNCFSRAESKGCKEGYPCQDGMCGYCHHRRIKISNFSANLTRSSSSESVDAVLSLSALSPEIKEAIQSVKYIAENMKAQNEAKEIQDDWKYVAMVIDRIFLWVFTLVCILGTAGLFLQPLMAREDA

[7] = Intrinsic clearance in dog; type: ADME, Canis lupus familiaris
[8] = Bioavailability in rat; type: ADME, organism-based; conditions: in vivo
Cytochrome P450 2C9 = Cytochrome P450 2C9 (Homo sapiens, UniProt P11712); test: Inhibition of CYP2C9 (unknown origin); type: ADME
Cytochrome P450 2C9, sequence (P11712 whole entry): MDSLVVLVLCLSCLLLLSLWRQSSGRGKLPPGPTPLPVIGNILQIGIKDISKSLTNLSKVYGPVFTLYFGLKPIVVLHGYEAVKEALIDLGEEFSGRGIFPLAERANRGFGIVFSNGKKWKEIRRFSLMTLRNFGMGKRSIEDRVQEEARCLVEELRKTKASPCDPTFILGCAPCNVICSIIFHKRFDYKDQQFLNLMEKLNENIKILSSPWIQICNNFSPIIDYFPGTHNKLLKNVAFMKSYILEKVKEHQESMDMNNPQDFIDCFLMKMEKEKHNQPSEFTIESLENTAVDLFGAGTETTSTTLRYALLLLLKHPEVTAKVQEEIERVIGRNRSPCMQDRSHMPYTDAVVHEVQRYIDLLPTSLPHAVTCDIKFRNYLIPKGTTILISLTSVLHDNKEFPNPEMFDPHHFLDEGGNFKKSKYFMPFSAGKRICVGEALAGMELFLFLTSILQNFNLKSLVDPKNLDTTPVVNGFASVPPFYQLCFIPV

[9] = Solubility of compound at pH 7 by HPLC method; type: physicochemical; conditions: buffer
[10] = Half life in rat; type: ADME; conditions: in vivo
mouse BCRP (ABCG2) [11] = biological target: T1, mouse BCRP (ABCG2) (Mus musculus, UniProt Q7TMS5); test: Substrate activity at mouse BCRP assessed as apparent permeability at 1 uM; type: ADME; conditions: not told
T1 sequence (Q7TMS5 whole entry): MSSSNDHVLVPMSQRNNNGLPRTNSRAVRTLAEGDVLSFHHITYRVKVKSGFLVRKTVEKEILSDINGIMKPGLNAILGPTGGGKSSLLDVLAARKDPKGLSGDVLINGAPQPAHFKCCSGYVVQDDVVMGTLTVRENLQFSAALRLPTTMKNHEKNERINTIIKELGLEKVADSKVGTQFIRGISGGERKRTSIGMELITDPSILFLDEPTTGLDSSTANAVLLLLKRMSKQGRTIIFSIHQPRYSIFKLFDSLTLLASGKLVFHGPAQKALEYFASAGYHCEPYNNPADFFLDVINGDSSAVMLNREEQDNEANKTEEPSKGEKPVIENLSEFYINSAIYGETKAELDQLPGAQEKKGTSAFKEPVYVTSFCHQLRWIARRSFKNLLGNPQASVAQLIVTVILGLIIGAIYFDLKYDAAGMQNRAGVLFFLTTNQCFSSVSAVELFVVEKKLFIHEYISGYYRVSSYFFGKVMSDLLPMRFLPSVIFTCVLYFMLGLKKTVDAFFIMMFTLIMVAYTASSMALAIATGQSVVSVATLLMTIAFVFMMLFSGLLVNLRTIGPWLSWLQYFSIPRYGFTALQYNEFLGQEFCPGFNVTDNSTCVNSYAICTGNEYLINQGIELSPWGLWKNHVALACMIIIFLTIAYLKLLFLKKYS

[12] = Unbound fraction in rat plasma; type: ADME, cell-free
[13] = Mean residence time in rat at 5 to 10 mg/kg, po or 0.05 to 2 mg/kg, iv; type: ADME, organism-based; conditions: in vivo, dose 5-10 mg/kg
[14] = Unbound fraction in dog plasma; type: ADME, cell-free, Canis lupus familiaris
mouse BCRP (ABCG2) [15] = biological target: T1, mouse BCRP (ABCG2); test: Substrate activity at mouse BCRP assessed as efflux ratio at 1 uM; type: ADME; conditions: not told
[16] = Bioavailability in dog; type: ADME, organism-based, Canis lupus familiaris; conditions: in vivo
[17] = biological target: T2, Nuclear receptor subfamily 1 group I member 2 (Homo sapiens, UniProt O75469); test: Activation of PXR (unknown origin)
T2 sequence (O75469 whole entry): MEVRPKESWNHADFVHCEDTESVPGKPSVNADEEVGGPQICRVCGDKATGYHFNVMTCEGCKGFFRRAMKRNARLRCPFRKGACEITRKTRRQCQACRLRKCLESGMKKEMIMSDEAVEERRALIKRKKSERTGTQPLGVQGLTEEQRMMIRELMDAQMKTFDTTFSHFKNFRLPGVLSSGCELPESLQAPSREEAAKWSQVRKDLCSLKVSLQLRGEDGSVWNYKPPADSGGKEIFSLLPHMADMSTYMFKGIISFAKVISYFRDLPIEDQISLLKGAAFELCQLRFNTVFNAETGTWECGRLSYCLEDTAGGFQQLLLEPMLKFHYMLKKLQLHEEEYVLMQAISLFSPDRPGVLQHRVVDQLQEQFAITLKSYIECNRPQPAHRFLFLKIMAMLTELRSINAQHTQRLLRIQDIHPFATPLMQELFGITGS

[18] = Intrinsic clearance in rat at 5 to 10 mg/kg, po or 0.05 to 2 mg/kg, iv; type: ADME, organism-based; conditions: in vivo, dose 5-10 mg/kg
[19] = Unbound brain-to-plasma concentration ratio in rat at 5 mg/kg, po after 2 hrs; type: ADME, organism-based; conditions: read-out: K(p,uu,brain)
[20] = Clearance in dog; type: ADME, Canis lupus familiaris; conditions: in vivo
[21] = biological target: T3, Muscarinic acetylcholine receptor M5 (Homo sapiens, UniProt P08912); test: Inhibition of human muscarinic M5 receptor
T3 sequence (P08912 whole entry): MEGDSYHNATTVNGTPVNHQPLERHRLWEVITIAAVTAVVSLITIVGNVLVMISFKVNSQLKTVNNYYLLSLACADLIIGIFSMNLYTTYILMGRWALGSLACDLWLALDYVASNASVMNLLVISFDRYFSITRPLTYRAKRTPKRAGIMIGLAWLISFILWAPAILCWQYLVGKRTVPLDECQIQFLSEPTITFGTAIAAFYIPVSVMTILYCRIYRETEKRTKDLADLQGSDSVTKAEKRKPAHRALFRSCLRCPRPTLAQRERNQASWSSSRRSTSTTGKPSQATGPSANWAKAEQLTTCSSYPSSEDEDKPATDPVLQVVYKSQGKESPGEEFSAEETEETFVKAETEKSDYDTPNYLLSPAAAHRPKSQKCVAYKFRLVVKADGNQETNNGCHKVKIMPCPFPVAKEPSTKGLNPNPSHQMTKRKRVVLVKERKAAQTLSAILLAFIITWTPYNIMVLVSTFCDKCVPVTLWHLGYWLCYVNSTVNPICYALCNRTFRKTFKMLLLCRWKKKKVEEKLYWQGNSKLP

[22] = Clearance in rat; type: ADME; conditions: in vivo
[23] = Unbound fraction in human plasma; type: ADME, cell-free
Cytochrome P450 2D6 = Cytochrome P450 2D6 (Homo sapiens, UniProt P10635); test: Inhibition of CYP2D6 (unknown origin); type: ADME
Cytochrome P450 2D6, sequence (P10635 whole entry): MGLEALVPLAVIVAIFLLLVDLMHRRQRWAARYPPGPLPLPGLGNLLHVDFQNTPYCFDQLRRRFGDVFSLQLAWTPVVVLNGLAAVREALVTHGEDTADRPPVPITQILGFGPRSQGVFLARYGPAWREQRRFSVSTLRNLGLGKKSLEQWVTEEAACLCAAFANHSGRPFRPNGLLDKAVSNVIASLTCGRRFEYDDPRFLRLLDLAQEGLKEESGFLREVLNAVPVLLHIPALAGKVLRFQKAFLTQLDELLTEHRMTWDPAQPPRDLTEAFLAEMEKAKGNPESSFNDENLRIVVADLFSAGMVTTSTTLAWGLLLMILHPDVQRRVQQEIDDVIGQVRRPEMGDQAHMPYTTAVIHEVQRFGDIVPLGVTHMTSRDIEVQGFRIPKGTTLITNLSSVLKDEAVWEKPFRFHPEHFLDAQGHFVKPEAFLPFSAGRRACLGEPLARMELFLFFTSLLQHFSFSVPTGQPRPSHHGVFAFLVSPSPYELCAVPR

[24] = biological target: T4, Ceramide glucosyltransferase (Mus musculus, UniProt O88693); test: Inhibition of GCS in mouse fibroblast; type: cell-based
T4 sequence (O88693 whole entry): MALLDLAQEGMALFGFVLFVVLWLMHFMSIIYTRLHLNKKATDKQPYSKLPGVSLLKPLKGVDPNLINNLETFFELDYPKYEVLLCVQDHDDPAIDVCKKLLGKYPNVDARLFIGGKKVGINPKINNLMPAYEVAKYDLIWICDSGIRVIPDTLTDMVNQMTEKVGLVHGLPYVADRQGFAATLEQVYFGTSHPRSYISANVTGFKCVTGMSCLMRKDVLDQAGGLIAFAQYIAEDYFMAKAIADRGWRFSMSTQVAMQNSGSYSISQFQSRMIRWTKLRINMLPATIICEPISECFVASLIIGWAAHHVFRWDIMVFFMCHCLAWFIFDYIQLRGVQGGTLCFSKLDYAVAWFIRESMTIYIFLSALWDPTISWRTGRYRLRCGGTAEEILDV

[25] = Intrinsic clearance in rat; type: ADME
[26] = Lipophilicity, logD of compound by HPLC method; type: physicochemical

SMILES: Cl.O=C(N1CCN2CCC1CC2)n1nc(-n2cc(C(F)(F)F)cn2)c2c1COCC2
- Emax (Homo sapiens [1]): 26%
- solubility [2]: 174 µM
- half-life [3]: 8.2 h
- bioavailability [4]: 95%
- Ratio IC50 (Homo sapiens [5]): 1100
- IC50 [6]: 2.2 µM
- CLint scaled [7]: 75 mL/min/kg
- bioavailability [8]: 95%
- IC50 (Cytochrome P450 2C9): > 50 µM
- solubility [9]: 168 µM
- half-life [10]: 3.4 h
- Papp at 1 µM (mouse BCRP (ABCG2) [11]): 31 ×10⁻⁶ cm/s
- fraction unbound [12]: 0.08
- MRT [13]: 5.3 h
- fraction unbound [14]: 0.27
- efflux ratio at 1 µM (mouse BCRP (ABCG2) [15]): 1.3
- bioavailability [16]: 48%
- EC50 [17]: > 30 µM
- CL [18]: 55 mL/min/kg
- Kp uu at 2 h [19]: 1.3
- clearance [20]: 12 mL/min/kg
- IC50 [21]: 10.2 µM
- clearance [22]: 6.1 mL/min/kg
- fraction unbound [23]: 0.03
- IC50 (Cytochrome P450 2D6): > 50 µM
- IC50 [24]: 0.017 µM
- CLint scaled [25]: 55 mL/min/kg
- logD [26]: 2.5

SMILES: O=C(N1CCN2CCC1CC2)n1nc(-c2ccc(F)cc2)c2c1COCC2
- Emax (Homo sapiens [1]): 17%
- solubility [2]: 167 µM (≈ 61.9 µg/mL)
- half-life [3]: 2.4 h
- bioavailability [4]: 73%
- Ratio IC50 (Homo sapiens [5]): 64
- IC50 [6]: 2.2 µM
- CLint scaled [7]: 6870 mL/min/kg
- bioavailability [8]: 73%
- IC50 (Cytochrome P450 2C9): > 50 µM
- solubility [9]: 170 µM (≈ 63 µg/mL)
- half-life [10]: 2.8 h
- Papp at 1 µM (mouse BCRP (ABCG2) [11]): 31 ×10⁻⁶ cm/s
- fraction unbound [12]: 0.11
- MRT [13]: 3.5 h
- fraction unbound [14]: 0.3
- efflux ratio at 1 µM (mouse BCRP (ABCG2) [15]): 1.4
- bioavailability [16]: 21%
- EC50 [17]: > 30 µM
- CL [18]: 90 mL/min/kg
- Kp uu at 2 h [19]: 0.4
- clearance [20]: 30 mL/min/kg
- IC50 [21]: 10.2 µM
- clearance [22]: 8.5 mL/min/kg
- fraction unbound [23]: 0.03
- IC50 (Cytochrome P450 2D6): > 50 µM
- IC50 [24]: 0.021 µM
- CLint scaled [25]: 90 mL/min/kg
- logD [26]: 2.2
